Results as given in US8962837B2, “Nitrogen heterocycle derivatives, preparation thereof and application thereof in human therapeutics” (Pierre Fabre Medicament, priority 2010, dated 2015).
Read-outs that look alike come from different tables or passages of the source.

Tests used:
[1] = target: Human SCD-1 (Homo sapiens (Human), UniProt O00767); assay: Human SCD-1 enzyme activity using HepG2 cell microsomes (conversion of stearic acid to oleic acid); assay type: biochemical; conditions: 20 minutes at 37° C., relative to 0.1% DMSO vehicle, read-out: HSCD-1 (HEPG2) IC50
Procedure: Human SCD-1 enzyme activity using HepG2 cell microsomes after treating with inhibitory compounds (% inhibition):
Human hepatocarcinoma HepG2 cells (ATCC, HB-8065) are cultured to confluence and trypsinised. The cell pellet is taken up with 10 mM Tris (pH 7.4) sucrose (250 mM) DTT (1 mM) buffer and the cells are lysed by sonication. The microsomes are obtained after centrifugation at 10,000 g for 20 minutes at 4° C. followed by centrifugation of the supernatant at 100,000 g for 60 minutes at 4° C. The pellet is taken up with 10 mM Tris (pH 7.4) sucrose (250 mM) buffer at 4° C. and the microsomal proteins are assayed and stored at −196° C. (liquid nitrogen).
The enzyme reaction measures the conversion of stearic acid (C18:0 fatty acid) to oleic acid (C18:1 fatty acid) by SCD-1. The enzyme reaction is started by adding 125 μg of HepG2 cell microsomal fraction to tubes (total reaction volume of 500 μl) containing 62 μM of stearic acid (45 μM of stearic acid 17 μM of [^14C] stearic acid) in a 100 mM phosphate buffer (pH 7.16) with 7.2 mM of ATP, 0.54 mM of CoA, 6 mM of MgCl2, 0.8 mM of NADH and the inhibitory compound or the vehicle (0.1% DMSO). The tubes are incubated for 20 minutes at 37° C. and the enzyme reaction is stopped by adding KOH (12%) and saponification for 30 minutes at 80° C. After acidification (3N HCl), the fatty acids are extracted twice with ethyl ether, evaporated in nitrogen before being taken up with methanol/dichloromethane (3:1). The reaction product (C18:1) is separated from the reaction substrate (C18:0) by HPLC (Perkin Elmer, C18 reverse phase column) coupled with an online radioactivity detector (FlowOne). The enzyme activity is calculated in picomoles of stearic acid converted into oleic acid per minute and per mg of protein. For each inhibitory compound, an IC50 is determined in relation to the reference enzyme activity (0.1% DMSO vehicle). Sterculic acid is the reference inhibitory compound (Gomez F. E., Bauman D. E., Ntambi J. M., Fox B. G. Effects of sterculic acid on stearoyl-CoA desaturase in differentiating 3T3-L1 adipocytes. Biochem Biophys Res Commun. 300 316-326 (2003).

[2] = test system: HCT-116 tumour cells; assay: Cytotoxic / anti-proliferation activity on human colon cancer cell line HCT-116 (ATP-lite); assay type: cell-based; conditions: 72 hours
Procedure: Cytotoxic activities with respect to human colon cancer cell lines (HCT-116):
HCT-116 tumour cells are inoculated in a 96-well plate in RPMI 1640 medium to which 5% foetal calf serum is added (100 μl/well, respectively at 1.5 10^4 cells/ml). After 24 hours of incubation at 37° C. in an incubator at 5% CO2, 11 μl of medium containing the compound under test at a concentration 10 times greater than the final concentration are added. The plates are incubated for a further 72 hours. Cell survival is evaluated by measuring the luminescence after releasing ATP in the medium using the cell lysis, luciferase and luciferin solutions contained in the ATP-lite-M™ kit as recommended by the manufacturer (Packard, Rungis, France). Each experimental condition was replicated at least three times independently with one well reading in sextuplet per dose interval.

[3] = test system: sebaceous glands; assay: Topical application of SCD-1 inhibitory compounds to NMRI mice: reduction in number and size of sebaceous glands; assay type: in vivo; conditions: Mus musculus, 120 h, twice daily, treatment time 5 days; for inhibition in vivo at 1 %: concentration 1%; for inhibition in vivo at 0.3 %: concentration 0.3%
Procedure: Topical application of SCD-1 inhibitory compounds to NMRI mice: reduction in number and size of sebaceous glands.
Experimental protocol: Crl:NMRI male mice (24-26 g) are shaved (2×2 cm^2 minimum) 2-3 days before the first application of molecules under test. To prevent potential oral intake of the molecules, the animals are accommodated individually.
The molecules are solubilised in the ethanol/propylene glycol (30/70, v/v) vehicle are a maximum concentration of 1%. 50 μl of each preparation (molecule under test, or vehicle) are applied twice daily for 5 consecutive days on the 2 cm^2 shaved area, with the cone of a pipette with a number of to-and-fro movements. At least 6 hours after the final application, the mice are euthanised, the skin samples are taken and fixed immediately to produce paraffin sections; a histomorphometric analysis after Haematoxylin/Eosin staining is carried out.
For each animal, at least 3 sections approximately 10 mm in length are read blind by 3 people, and the efficacy of the molecules on sebaceous gland atrophy is assessed quantitatively (number) and qualitatively (relative score, size). The duration of action, the reversibility of the effect are verified in the same way by modifying the application sequences.

[4] = HCT-116, HTC116 human tumour line, read-out: EC50 (anti-proliferation activity)
[5] = Homo sapiens, HCT-116 tumour line cells, read-out: 50% inhibitory concentration (EC50), concentration inhibiting cell proliferation by 50%

Sequence of Human SCD-1 (O00767 whole entry): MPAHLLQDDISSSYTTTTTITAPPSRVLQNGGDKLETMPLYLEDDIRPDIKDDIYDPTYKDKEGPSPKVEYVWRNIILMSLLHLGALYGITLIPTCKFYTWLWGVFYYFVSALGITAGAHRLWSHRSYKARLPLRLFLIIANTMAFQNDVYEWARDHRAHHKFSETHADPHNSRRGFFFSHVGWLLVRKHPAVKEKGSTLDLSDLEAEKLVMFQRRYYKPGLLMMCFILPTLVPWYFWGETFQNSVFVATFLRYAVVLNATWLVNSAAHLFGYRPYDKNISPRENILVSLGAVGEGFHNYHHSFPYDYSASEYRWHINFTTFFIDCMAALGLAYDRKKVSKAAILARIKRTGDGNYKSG

Row | SMILES | IC50 [1] [nM] | other results
1 | FC(F)(F)c1ccc(Cl)c(OC2CCN(c3nccnn3)C2)c1 (stereo not drawn) [Example 42, 3-[3-(2-Chloro-5-trifluoromethyl-phenoxy)-pyrrolidin-1-yl]-[1,2,4]triazine] | 300 to 1000 | 
2 | FC(F)(F)c1ccc(Cl)c(OC2CCN(c3nccnn3)CC2)c1 [Example 17, 3-[4-(2-Chloro-5-trifluoromethyl-phenoxy)-piperidin-1-yl]-[1,2,4]triazine] | 100 | EC50 [2, 4]: 230 nM; EC50 [2, 5]: 230 nM; inhibition in vivo at 1 % [3]: 97%
3 | Cn1cc(Cl)nc(N2CCC(Oc3ccccc3Cl)CC2)c1=O [Example 6, 5-Chloro-3-[4-(2-chloro-phenoxy)-piperidin-1-yl]-1-methyl-1H-pyrazin-2-one] | 100 to 1000 | inhibition in vivo at 0.3 % [3]: 79%
4 | Cc1cnnc(N2CCC(Oc3cc(F)ccc3Cl)CC2)n1 [Example 25, 3-[4-(2-Chloro-5-fluoro-phenoxy)-piperidin-1-yl]-5-methyl-[1,2,4]triazine] | 100 | 
5 | Fc1cc(Br)c(OC2CCN(c3nccnn3)CC2)cc1F [Example 33, 3-[4-(2-Bromo-4,5-difluoro-phenoxy)-piperidin-1-yl]-[1,2,4]triazine] | 10 to 100 | 
6 | Cc1cnnc(N2CCC(Oc3ccccc3Cl)CC2)n1 [Example 28, 3-[4-(2-Chloro-phenoxy)-piperidin-1-yl]-5-methyl-[1,2,4]triazine] | 300 to 1000 | 
7 | Cn1cc(Cl)nc(N2CCC(Oc3cc(F)ccc3Cl)CC2)c1=O [Example 12, 5-Chloro-3-[4-(2-chloro-5-fluoro-phenoxy)-piperidin-1-yl]-1-methyl-1H-pyrazin-2-one] | 10 to 30 | EC50 [2, 4]: 60 nM; EC50 [2, 5]: 60 nM; inhibition in vivo at 0.3 % [3]: 94%
8 | Cc1cnc(N2CCC(Oc3cc(F)ccc3Cl)CC2)nn1 [Example 30, 3-[4-(2-Chloro-5-fluoro-phenoxy)-piperidin-1-yl]-6-methyl-[1,2,4]triazine] | 100 | 
9 | Cn1cc(Cl)nc(N2CCC(Oc3ccccc3C(F)(F)F)CC2)c1=O [Example 7, 5-Chloro-1-methyl-3-[4-(2-trifluoromethyl-phenoxy)-piperidin-1-yl]-1H-pyrazin-2-one] | 100 to 300 | inhibition in vivo at 0.3 % [3]: 75%
10 | Cn1ccnc(N2CCC(Oc3ccccc3C(F)(F)F)CC2)c1=O [Example 11, 1-Methyl-3-[4-(2-trifluoromethyl-phenoxy)-piperidin-1-yl]-1H-pyrazin-2-one] | 100 | inhibition in vivo at 1 % [3]: 45%
11 | O=[N+]([O-])c1ccccc1OC1CCN(c2nccnn2)CC1 [Example 35, 3-[4-(2-Nitro-phenoxy)-piperidin-1-yl]-[1,2,4]triazine] | 100 to 1000 | 
12 | CCCCCCCCC1=C(CCCCCCCC(=O)O)C1 [Sterculic acid, reference compound] | 300 | 
13 | Clc1ccccc1OC1CCN(c2nccnn2)CC1 [Example 13, 3-[4-(2-Chloro-phenoxy)-piperidin-1-yl]-[1,2,4]triazine] | 100 to 1000 | 
14 | O=[N+]([O-])c1ccc(Cl)c(OC2CCN(c3nccnn3)CC2)c1 [Example 32, 3-[4-(2-Chloro-5-nitro-phenoxy)-piperidin-1-yl]-[1,2,4]triazine] | 30 to 100 | 
15 | Cn1nccc(N2CCC(Oc3cc(C(F)(F)F)ccc3Cl)CC2)c1=O [Example 40, 4-[4-(2-Chloro-5-trifluoromethyl-phenoxy)-piperidin-1-yl]-2-methyl-2H-pyridazin-3-one] | 100 to 300 | inhibition in vivo at 0.1 % ([3]; concentration 0.1%): 36%
16 | Cc1nnc(N2CCC(Oc3cc(C(F)(F)F)ccc3Cl)CC2)nc1C [Example 19, 3-[4-(2-Chloro-5-trifluoromethyl-phenoxy)-piperidin-1-yl]-5,6-dimethyl-[1,2,4]triazine] | 100 to 1000 | 
17 | Cn1cc(Cl)nc(N2CCC(Oc3cc(C(F)(F)F)ccc3Cl)CC2)c1=O [Example 8] | 100 to 300 | inhibition in vivo at 0.3 % [3]: 95%
18 | Cc1ccccc1OC1CCN(c2nc(Cl)cn(C)c2=O)CC1 [Example 9, 5-Chloro-1-methyl-3-(4-o-tolyloxy-piperidin-1-yl)-1H-pyrazin-2-one] | 100 to 1000 | inhibition in vivo at 0.3 % [3]: 43%
19 | FC(F)(F)c1ccccc1NC1CCN(c2nccnn2)CC1 [Example 36] | 30 | 
20 | Cc1cnnc(N2CCC(Oc3cc(C(F)(F)F)ccc3Cl)CC2)n1 [Example 27, 3-[4-(2-Chloro-5-trifluoromethyl-phenoxy)-piperidin-1-yl]-5-methyl-[1,2,4]triazine] | 300 | 
21 | CC1CN(c2nccnn2)CCC1Oc1cc(Cl)ccc1Cl (stereo not drawn) [Example 38, 3-[4-(2,5-Dichloro-phenoxy)-3-methyl-piperidin-1-yl]-[1,2,4]triazine] | 300 to 1000 | 
22 | Fc1ccc(Cl)c(OC2CCN(c3nccnn3)CC2)c1 [Example 18, 3-[4-(2-Chloro-5-fluoro-phenoxy)-piperidin-1-yl]-[1,2,4]triazine] | 30 | 
23 | FC(F)(F)c1ccccc1OC1CCN(c2nccnn2)CC1 [Example 14, 3-[4-(2-Trifluoromethyl-phenoxy)-piperidin-1-yl]-[1,2,4]triazine] | 100 to 1000 | 
24 | CC1CN(c2nccnn2)CCC1Oc1cc(C(F)(F)F)ccc1Cl (stereo not drawn) [Example 37, 3-[4-(2-Chloro-5-trifluoromethyl-phenoxy)-3-methyl-piperidin-1-yl]-[1,2,4]triazine] | 100 to 1000 | 
